This is an account of results in patent publication US20240425501A1, “NOVEL BICYCLIC HETEROARYL DERIVATIVES AS SOS1:KRAS PROTEINPROTEIN INTERACTION INHIBITORS” (SATYARX PHARMA INNOVATIONS PVT LTD, priority 2021, published 2024).

For the assay, the target named is T1, hSOS1 enzyme / KRAS (G12C), GST-Tag, GDP-bound protein (Homo sapiens, UniProt Q07889).
T1 sequence (Q07889 564-1049 limits assumed): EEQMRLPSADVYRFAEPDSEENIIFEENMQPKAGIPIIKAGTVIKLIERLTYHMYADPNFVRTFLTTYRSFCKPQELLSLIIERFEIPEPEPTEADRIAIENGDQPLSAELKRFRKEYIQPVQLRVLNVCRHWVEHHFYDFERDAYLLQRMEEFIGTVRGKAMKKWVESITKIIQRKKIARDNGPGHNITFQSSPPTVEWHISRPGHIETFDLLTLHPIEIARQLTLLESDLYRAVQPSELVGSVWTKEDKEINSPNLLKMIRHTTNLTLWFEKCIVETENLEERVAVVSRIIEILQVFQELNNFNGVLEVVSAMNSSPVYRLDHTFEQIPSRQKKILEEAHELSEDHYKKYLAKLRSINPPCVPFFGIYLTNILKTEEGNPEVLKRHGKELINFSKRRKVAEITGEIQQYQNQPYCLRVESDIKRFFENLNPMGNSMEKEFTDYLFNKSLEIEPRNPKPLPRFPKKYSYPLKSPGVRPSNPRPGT
The assay is described as follows: SOS1-mediated KRAS guanine nucleotide exchange (GEF) assay, HTRF ("On Assay"). It counts as biochemical. The settings on record: 1 μM compound. In a few lines: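 Compounds were preincubated 10 min at 25 °C with GDP-loaded GST-KRAS G12C and Tb-anti-GST (working solution 100 nM/2 nM) in HEPES pH 7, 5 mM MgCl2. hSOS1 plus DY-647P-labelled GTP (working solution 20 nM/200 nM) was then added for 10 min. HTRF was read at 665/615 nm with 320 nm excitation, and wells lacking SOS1 served as negative control.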
Background: In TR-FRET formats the signal depends on donor and acceptor labels being close together.
Usually inhibition stands for the change of the read-out against control, counted positive when it falls. A lower inhibition goes with little suppression. On to `C[C@@H](Nc1nc(N2CCC2)nc2cnc(C3CCOCC3)cc12)c1cc(N)cc(C(F)(F)F)c1` [Example 67, (R)—N-(1-(3-amino-5-(trifluoromethyl)phenyl)ethyl)-2-(azetidin-1-yl)-6-(tetrahydro-2H-pyran-4-yl)pyrido[3,4-d]pyrimidin-4-amine], for which the inhibition at 1 µM was at least 50%.

Regarding `C[C@@H](Nc1nc(N2CCC2)nc2cnc(C3CCN(C)CC3)cc12)c1cc(N)cc(C(F)(F)F)c1` [Example 68, (R)—N-(1-(3-amino-5-(trifluoromethyl)phenyl)ethyl)-2-(azetidin-1-yl)-6-(1-methylpiperidin-4-yl)pyrido[3,4-d]pyrimidin-4-amine], the inhibition at 1 µM is at least 50%.

Take `C[C@@H](Nc1nc(N(C)C)nc2cnc(C3CCN(C)CC3)cc12)c1cc(N)cc(C(F)(F)F)c1` [Example 69, (R)—N4-(1-(3-amino-5-(trifluoromethyl)phenyl)ethyl)-N2,N2-dimethyl-6-(1-methylpiperidin-4-yl)pyrido[3,4-d]pyrimidine-2,4-diamine]: the inhibition at 1 µM was at least 50%. As for `CCN1CCN(c2cc3c(N[C@H](C)c4cc(N)cc(C(F)(F)F)c4)nc(Cl)nc3cc2F)CC1` [Example 70, (R)—N-(1-(3-amino-5-(trifluoromethyl)phenyl)ethyl)-2-chloro-6-(4-ethylpiperazin-1-yl)-7-fluoroquinazolin-4-amine], the figure is at least 50%; as for `CCN1CCN(c2cc3c(N[C@H](C)c4cc(N)cc(C(F)(F)F)c4)nc(Cl)nc3cc2C)CC1` [Example 71, (R)—N-(1-(3-amino-5-(trifluoromethyl)phenyl)ethyl)-2-chloro-6-(4-ethylpiperazin-1-yl)-7-methylquinazolin-4-amine], at least 50%; as for `CCN1CCN(c2cc3c(N[C@H](C)c4cc(N)cc(C(F)(F)F)c4)nc(Cl)nc3cc2OC)CC1` [Example 72, (R)—N-(1-(3-amino-5-(trifluoromethyl)phenyl)ethyl)-2-chloro-6-(4-ethylpiperazin-1-yl)-7-methoxyquinazolin-4-amine], at least 50%. `CCN1CCN(c2ccc3nc(Cl)nc(N[C@H](C)c4cc(N)cc(C(F)(F)F)c4)c3c2)CC1` [Example 73, (R)—N-(1-(3-amino-5-(trifluoromethyl)phenyl)ethyl)-2-chloro-6-(4-ethylpiperazin-1-yl)quinazolin-4-amine] came in with an inhibition at 1 µM of at least 50%. In turn, `CNc1nc(N[C@H](C)c2cc(N)cc(C(F)(F)F)c2)c2cc(N3CCOCC3)ccc2n1` [Example 74, (R)—N4-(1-(3-amino-5-(trifluoromethyl)phenyl)ethyl)-N2-methyl-6-morpholinoquinazoline-2,4-diamine] showed an inhibition at 1 µM of at least 50%. For `CCC(=O)Nc1nc(N[C@H](C)c2cc(N)cc(C(F)(F)F)c2)c2cc(N3CCCC3)ncc2n1` [Example 75, (R)—N-(4-((1-(3-amino-5-(trifluoromethyl)phenyl)ethyl)amino)-6-(pyrrolidin-1-yl)pyrido[3,4-d]pyrimidin-2-yl)propionamide], the inhibition at 1 µM was below 50%.

`COCC(=O)Nc1nc(N[C@H](C)c2cc(N)cc(C(F)(F)F)c2)c2cc(N3CCCC3)ncc2n1` [Example 76, (R)—N-(4-((1-(3-amino-5-(trifluoromethyl)phenyl)ethyl)amino)-6-(pyrrolidin-1-yl)pyrido[3,4-d]pyrimidin-2-yl)-2-methoxyacetamide]: the inhibition at 1 µM was below 50%. `C[C@@H](Nc1nc(NC(=O)CN)nc2cnc(N3CCCC3)cc12)c1cc(N)cc(C(F)(F)F)c1` [Example 77, (R)-2-amino-N-(4-((1-(3-amino-5-(trifluoromethyl)phenyl)ethyl)amino)-6-(pyrrolidin-1-yl)pyrido[3,4-d]pyrimidin-2-yl)acetamide hydro chloride] came in with an inhibition at 1 µM of at least 50%. `CNCCC(=O)Nc1nc(N[C@H](C)c2cc(N)cc(C(F)(F)F)c2)c2cc(N3CCCC3)ncc2n1` [Example 78] returned an inhibition at 1 µM of at least 50%.
